In PubChem BioAssay AID2060912 (Molecular Pharmacology Branch, DTP, NCI, 2025):

Test system: HUVEC/MSC spheroids viability
Experiment: Human HUVEC/MSC cell line growth inhibition [KRAS2];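 for viability, T/C: percent of DMSO vehicle control luminescence so 100% = untreated viability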
Settings: for IC50: curve of first compound; for viability, T/C: stronger effect = lower value
In short: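 Stroma-only multicellular spheroids, formed from HUVEC and human MSCs at passages </=5, received RAS-pathway inhibitors with or without a second targeted drug. Dosing followed half-log dilutions from clinically achievable levels.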

Cn1ncnc1[C@H]1c2n[nH]c(=O)c3cc(F)cc(c23)N[C@@H]1c1ccc(F)cc1 + COc1cc2nc(C)nc(NC(C)c3cc(N)cc(C(F)(F)F)c3)c2cc1OC1CCOC1
IC50 (second compound 0.0316 µM): > 0.1 µM | IC50 (second compound 0.1 µM): > 0.1 µM | IC50 (second compound 0.316 µM): > 0.1 µM | IC50 (second compound 1 µM): > 0.1 µM | IC50 (second compound 3.16 µM): > 0.1 µM | IC50 (second compound 10 µM): > 0.1 µM | viability, T/C (second compound 0.0316 µM, first compound 0.000316 µM): 107% | viability, T/C (second compound 0.0316 µM, first compound 0.001 µM): 110% | viability, T/C (second compound 0.0316 µM, first compound 0.00316 µM): 118% | viability, T/C (second compound 0.0316 µM, first compound 0.01 µM): 89.7% | viability, T/C (second compound 0.0316 µM, first compound 0.0316 µM): 109% | viability, T/C (second compound 0.0316 µM, first compound 0.1 µM): 96.8% | viability, T/C (second compound 0.1 µM, first compound 0.000316 µM): 89.2% | viability, T/C (second compound 0.1 µM, first compound 0.001 µM): 96.9% | viability, T/C (second compound 0.1 µM, first compound 0.00316 µM): 100% | viability, T/C (second compound 0.1 µM, first compound 0.01 µM): 117% | viability, T/C (second compound 0.1 µM, first compound 0.0316 µM): 96% | viability, T/C (second compound 0.1 µM, first compound 0.1 µM): 107% | viability, T/C (second compound 0.316 µM, first compound 0.000316 µM): 92.9% | viability, T/C (second compound 0.316 µM, first compound 0.001 µM): 101% | viability, T/C (second compound 0.316 µM, first compound 0.00316 µM): 102% | viability, T/C (second compound 0.316 µM, first compound 0.01 µM): 103% | viability, T/C (second compound 0.316 µM, first compound 0.0316 µM): 97.3% | viability, T/C (second compound 0.316 µM, first compound 0.1 µM): 89.3% | viability, T/C (second compound 1 µM, first compound 0.000316 µM): 95.2% | viability, T/C (second compound 1 µM, first compound 0.001 µM): 89.9% | viability, T/C (second compound 1 µM, first compound 0.00316 µM): 99.3% | viability, T/C (second compound 1 µM, first compound 0.01 µM): 88.9% | viability, T/C (second compound 1 µM, first compound 0.0316 µM): 89.3% | viability, T/C (second compound 1 µM, first compound 0.1 µM): 79.5% | viability, T/C (second compound 3.16 µM, first compound 0.000316 µM): 90.9% | viability, T/C (second compound 3.16 µM, first compound 0.001 µM): 104% | viability, T/C (second compound 3.16 µM, first compound 0.00316 µM): 85.8% | viability, T/C (second compound 3.16 µM, first compound 0.01 µM): 101% | viability, T/C (second compound 3.16 µM, first compound 0.0316 µM): 92.3% | viability, T/C (second compound 3.16 µM, first compound 0.1 µM): 81.1% | viability, T/C (second compound 10 µM, first compound 0.000316 µM): 72% | viability, T/C (second compound 10 µM, first compound 0.001 µM): 75.9% | viability, T/C (second compound 10 µM, first compound 0.00316 µM): 81.9% | viability, T/C (second compound 10 µM, first compound 0.01 µM): 66.8% | viability, T/C (second compound 10 µM, first compound 0.0316 µM): 77.6% | viability, T/C (second compound 10 µM, first compound 0.1 µM): 73.3%

COc1cc(Nc2ncc3c(n2)-c2ccc(Cl)cc2C(c2c(F)cccc2OC)=NC3)ccc1C(=O)O + C=CC(=O)N1CCN(c2nc(OCC3CCCN3C)nc3c2CCN(c2cccc4cccc(C)c24)C3)CC1CC#N
IC50 (second compound 0.00949 µM): > 10 µM | IC50 (second compound 0.03 µM): > 10 µM | IC50 (second compound 0.0949 µM): > 10 µM | IC50 (second compound 0.3 µM): > 10 µM | IC50 (second compound 0.949 µM): 7.03 µM | IC50 (second compound 3 µM): 5.92 µM | viability, T/C (second compound 0.00949 µM, first compound 0.0316 µM): 93.2% | viability, T/C (second compound 0.00949 µM, first compound 0.1 µM): 88% | viability, T/C (second compound 0.00949 µM, first compound 0.316 µM): 87.1% | viability, T/C (second compound 0.00949 µM, first compound 1 µM): 83.8% | viability, T/C (second compound 0.00949 µM, first compound 3.16 µM): 105% | viability, T/C (second compound 0.00949 µM, first compound 10 µM): 66.6% | viability, T/C (second compound 0.03 µM, first compound 0.0316 µM): 77.3% | viability, T/C (second compound 0.03 µM, first compound 0.1 µM): 86.9% | viability, T/C (second compound 0.03 µM, first compound 0.316 µM): 86% | viability, T/C (second compound 0.03 µM, first compound 1 µM): 82.9% | viability, T/C (second compound 0.03 µM, first compound 3.16 µM): 102% | viability, T/C (second compound 0.03 µM, first compound 10 µM): 68.2% | viability, T/C (second compound 0.0949 µM, first compound 0.0316 µM): 80.4% | viability, T/C (second compound 0.0949 µM, first compound 0.1 µM): 108% | viability, T/C (second compound 0.0949 µM, first compound 0.316 µM): 98.5% | viability, T/C (second compound 0.0949 µM, first compound 1 µM): 74.7% | viability, T/C (second compound 0.0949 µM, first compound 3.16 µM): 81.6% | viability, T/C (second compound 0.0949 µM, first compound 10 µM): 61.2% | viability, T/C (second compound 0.3 µM, first compound 0.0316 µM): 79.8% | viability, T/C (second compound 0.3 µM, first compound 0.1 µM): 79.5% | viability, T/C (second compound 0.3 µM, first compound 0.316 µM): 76.9% | viability, T/C (second compound 0.3 µM, first compound 1 µM): 91.1% | viability, T/C (second compound 0.3 µM, first compound 3.16 µM): 87.5% | viability, T/C (second compound 0.3 µM, first compound 10 µM): 69% | viability, T/C (second compound 0.949 µM, first compound 0.0316 µM): 59.9% | viability, T/C (second compound 0.949 µM, first compound 0.1 µM): 78.9% | viability, T/C (second compound 0.949 µM, first compound 0.316 µM): 92.3% | viability, T/C (second compound 0.949 µM, first compound 1 µM): 75.8% | viability, T/C (second compound 0.949 µM, first compound 3.16 µM): 73.2% | viability, T/C (second compound 0.949 µM, first compound 10 µM): 39.7% | viability, T/C (second compound 3 µM, first compound 0.0316 µM): 93.4% | viability, T/C (second compound 3 µM, first compound 0.1 µM): 88.5% | viability, T/C (second compound 3 µM, first compound 0.316 µM): 96.4% | viability, T/C (second compound 3 µM, first compound 1 µM): 102% | viability, T/C (second compound 3 µM, first compound 3.16 µM): 73.2% | viability, T/C (second compound 3 µM, first compound 10 µM): 30.7%
